Data as given in patent US20030175912A1, “Method of producing L-serine by fermentation” (AJINOMOTO CO. INC, priority 1998, published 2003).

Assays:
[1] = tested on: Brevibacterium flavum AJ13324 and AJ13327; assay: Growth in the presence of azaserine; format: cell-based; details: 0.25 g/L of azaserine
Method: More specifically, for example, the term “azaserine resistance” refers to the property that a bacterium grows faster than the wild type in a medium containing azaserine. For example, those strains that form colonies on a solid medium containing 0.25 g/L of azaserine at 30° C. within 4 to 5 days are said to have azaserine resistance.
(§1) To select azaserine resistant strains from NG treated strains using Brevibacterium flavum AJ13377 as a parent strain, NG treated Brevibacterium flavum AJ13377 cells after washed were inoculated on a minimal medium for selection. The minimal medium for selection was a medium that contained 20 g of glucose, 1 g of ammonium sulfate, 1 g of potassium dihydrogen phosphate, 2.5 g of urea, 0.4 g of magnesium sulfate heptahydrate, 0.01 g of iron (II) sulfate heptahydrate, 0.01 g of manganese sulfate tetra- to pentahydrate, 50 μg of biotin, 200 μg of thiamin hydrochloride, 200 μg of nicotinic acid amide, and 250 mg of azaserine per liter of distilled water. The NG treated mutant was incubated in the above-described medium at 30° C. for 5 to 10 days. The cell culture thus obtained was spread on a bouillon agar medium and incubated at 30° C. for 24 hours for colony formation. Azaserine resistant strains were obtained from the strains that formed colonies. The mutants thus obtained included many strains that accumulated L-serine in considerable amounts at high yields. […]

[2] = tested on: Brevibacterium flavum AJ13325; assay: Growth in the presence of β-(2-thienyl)-DL-alanine; format: cell-based; details: 0.25 g/L of β-(2-thienyl)-DL-alanine
Method: Similarly, the term “β-(2-thienyl)-DL-alanine resistance” refers to the property that a bacterium grows faster than the wild type in a medium containing β-(2-thienyl)-DL-alanine. For example, those strains that form colonies on a solid medium containing 0.25 g/L of β-(2-thienyl)-DL-alanine at 30° C. within 4 to 5 days are said to have β-(2-thienyl)-DL-alanine resistance.
as §1, with “β-(2-thienyl)-DL-alanine” for “azaserine”, “strain,” for “strain, NG treated”, “were NG treated and” for “after”, “before their inoculation” for “were inoculated”, “β-(2-Thienyl)-DL-alanine” for “Azaserine”, “colonies.” for “colonies. The mutants thus obtained included many strains that accumulated L-serine in considerable amounts at high yields.”

[3] = tested on: 3-PGDH derived from Brevibacterium flavum AJ13327; assay: Feedback inhibition of 3-PGDH by L-serine, enzyme of AJ13327; format: biochemical
Method: (§2) After collecting cells from the culture broth of each strain, the cells were washed twice with physiological saline and suspended in 50 mM sodium phosphate buffer (pH 7.0) containing 2 mM dithiothreitol. After ice cooling, the suspension was subjected to a sonicator to fragment the cells and the resulting liquid was ultracentrifuged. The ultracentrifugaton was run at 45,000 rpm for 1 hour to obtain a crude enzyme solution.
(§3) The enzyme activity of 3-PGDH was measured by the method of Salach H. J. et al. (Method in Enzymology, vol 9, 216-220 (1966)).
[…] Then, 0.2 ml of the crude enzyme solution was added and the temperature was kept the same for 5 minutes. Thereafter, 0.5 ml of 0.1 M 3-PGA (3-phosphoglycerate disodium salt, pH 7, NaOH) was added. After stirring, the absorbance at 340 nm of the reaction mixture was measured for 30 seconds. The reaction was carried out at 25° C.
(§4) For the measurement of activity, Hitachi U-2000A spectrophotometer was used.

[4] = tested on: 3-PGDH derived from AJ13325 strain; assay: Feedback inhibition of 3-PGDH by L-serine, enzyme of AJ13325; format: biochemical, Brevibacterium flavum; details: compared with AJ13324; FIG. 1
Method: as §2, §3
(§5) More specifically, 0.4 ml of 0.015 M NAD, 0.12 ml of 0.25 M EDTA (pH 9, NaOH), 0.1 ml of 0.05 M glutathione (pH 6, KOH), 0.5 ml of 1 M hydrazine (pH 9, acetate), 0.6 ml of 1 M Tris (pH 9, HCl), a suitable concentration of L-serine (0 to 40 mM), and water to make 2.3 ml, warmed to 25° C. in advance, were added. Then, 0.2 ml of the crude enzyme solution was added and the temperature was kept the same for 5 minutes. Thereafter, 0.5 ml of 0.1 M 3-PGA (3-phosphoglycerate disodium salt, pH 7, NaOH) was added. After stirring, the absorbance at 340 nm of the reaction mixture was measured for 30 seconds. The reaction was carried out at 25° C.
as §4

[5] = tested on: 3-PGDH derived from AJ13324 strain; assay: Feedback inhibition of 3-PGDH by L-serine, enzyme of AJ13324; format: biochemical, Brevibacterium flavum; details: compared with AJ13377; FIG. 1
Method: as §2, §3, §5, §4

[6] = tested on: 3-PGDH derived from AJ13377 strain; assay: Feedback inhibition of 3-PGDH by L-serine, enzyme of AJ13377; format: biochemical, Brevibacterium flavum; details: compared with wild type strain ATCC 14067; FIG. 1
Method: as §2, §3, §5, §4

[7] = tested on: 3-PGDH derived from a wild type coryneform bacterium (ATCC 14067); assay: Feedback inhibition of 3-PGDH by L-serine, enzyme of wild type strain; format: biochemical, Brevibacterium flavum; details: 10 mM of L-serine
Method: as §2, §3, §5, §4

[N-]=[N+]=CC(=O)OC[C@H](N)C(=O)O [azaserine]
growth of resistant strains in the presence of azaserine [1]: able to grow

NC(Cc1cccs1)C(=O)O (racemic) [β-(2-thienyl)-DL-alanine]
growth of resistant strains in the presence of β-(2-thienyl)-DL-alanine [2]: able to grow

N[C@@H](CO)C(=O)O [L-serine]
feedback inhibition of 3-PGDH by L-serine ([3]; 80 mM L-serine, FIG. 1): completely desensitized | 3-PGDH activity retained in the presence of L-serine ([3]; 80 mM of L-serine, relative to activity in the absence of L-serine): ~100% | L-serine sensitivity of 3-PGDH [4]: of the same level as the AJ13324 strain | L-serine sensitivity of 3-PGDH [5]: more relieved of L-serine sensitivity | L-serine sensitivity of 3-PGDH [6]: relieved of L-serine sensitivity | inhibition of 3-PGDH activity by L-serine [7]: almost completely inhibited
